The target of one assay is EphB4 (Homo sapiens (Human), UniProt P54760). The experiment in a line: EphB4 kinase inhibition, 33P phosphoryl transfer assay (radiometric). The format is biochemical.
The target of the next assay is ErbB2 (Homo sapiens (Human), UniProt P04626). The experiment in a line: ErbB2 kinase inhibition, AlphaScreen. It is filed as biochemical. On the procedure:
Kinase activity and compound inhibition are investigated using one or more of the three assay formats described below. The ATP concentrations are selected near its Michaelis-Menten constant (KM) for each individual kinase. Dose-response experiments are performed at ten different inhibitor concentrations in a 384-well plate format. […] These parameters are obtained by nonlinear regression algorithm built into ActivityBase software (available from ID Business Solutions Ltd., of Guildford, Surrey, UK). ^33P Phosphoryl Transfer Assay (Radiometric)
Background: Bead proximity is the source of the signal in Alpha formats.

A further assay deals with EphA2 (Homo sapiens (Human), UniProt P29317). The experiment in a line: EphA2 kinase inhibition, luciferase-coupled chemiluminescent assay (LCCA). As to conditions: read-out: EphA2 IC50.
Another assay has as its target EGFR (Homo sapiens (Human), UniProt P00533). The experiment in a line: EGFR kinase inhibition, luciferase-coupled chemiluminescent assay (LCCA). The conditions noted are these: read-out: EGFR IC50.
Another assay has as its target KDR (Homo sapiens (Human), UniProt P35968). The experiment in a line: KDR kinase inhibition, luciferase-coupled chemiluminescent assay (LCCA). As to conditions: read-out: KDR IC50.

Nine compounds from patent publication US9796704B2, “Substituted quinazolines as receptor-type kinase inhibitors” (Symphony Evolution, Inc., priority 2002, dated 2017) can be followed below.

The term IC50 denotes the point on the concentration scale where inhibition reaches its midpoint.

Sequence of EphB4 (P54760 605-890): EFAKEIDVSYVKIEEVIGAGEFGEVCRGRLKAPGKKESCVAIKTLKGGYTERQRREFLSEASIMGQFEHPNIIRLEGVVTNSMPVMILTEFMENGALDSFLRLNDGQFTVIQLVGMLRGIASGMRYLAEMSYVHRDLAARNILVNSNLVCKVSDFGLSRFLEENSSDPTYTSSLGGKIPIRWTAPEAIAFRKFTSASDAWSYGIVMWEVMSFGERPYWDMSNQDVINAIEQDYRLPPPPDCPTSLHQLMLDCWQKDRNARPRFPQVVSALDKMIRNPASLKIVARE
Sequence of KDR (P35968 807-1356): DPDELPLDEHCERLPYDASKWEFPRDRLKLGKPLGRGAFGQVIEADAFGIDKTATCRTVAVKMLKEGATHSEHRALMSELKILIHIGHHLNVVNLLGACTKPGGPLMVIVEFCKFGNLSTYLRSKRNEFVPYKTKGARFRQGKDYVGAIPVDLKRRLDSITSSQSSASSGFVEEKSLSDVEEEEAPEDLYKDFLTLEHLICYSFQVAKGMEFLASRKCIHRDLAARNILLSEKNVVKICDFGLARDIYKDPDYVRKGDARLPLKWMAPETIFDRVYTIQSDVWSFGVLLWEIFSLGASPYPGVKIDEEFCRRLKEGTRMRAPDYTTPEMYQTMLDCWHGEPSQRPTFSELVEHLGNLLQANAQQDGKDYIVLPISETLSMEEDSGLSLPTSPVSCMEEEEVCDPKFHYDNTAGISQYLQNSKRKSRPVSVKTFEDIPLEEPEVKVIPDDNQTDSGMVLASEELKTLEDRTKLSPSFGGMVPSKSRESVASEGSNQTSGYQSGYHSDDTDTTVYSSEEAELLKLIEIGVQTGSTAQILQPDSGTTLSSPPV
Sequence of EphA2 (P29317 598-890): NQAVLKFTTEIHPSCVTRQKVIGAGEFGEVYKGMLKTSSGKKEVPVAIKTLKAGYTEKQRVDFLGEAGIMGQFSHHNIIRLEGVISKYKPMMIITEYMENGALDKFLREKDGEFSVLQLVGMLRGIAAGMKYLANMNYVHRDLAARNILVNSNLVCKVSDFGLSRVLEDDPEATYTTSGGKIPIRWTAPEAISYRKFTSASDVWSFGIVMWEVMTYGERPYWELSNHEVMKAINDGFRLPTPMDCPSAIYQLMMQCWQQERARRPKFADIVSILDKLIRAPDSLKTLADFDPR
Description for EGFR: (§1) Kinase activity and compound inhibition are investigated using one or more of the three assay formats described below. The ATP concentrations are selected near its Michaelis-Menten constant (KM) for each individual kinase. Dose-response experiments are performed at ten different inhibitor concentrations in a 384-well plate format. […] Typically H is close to unity.
(§2) In the LCCA assays, kinase activity is measured by the ATP consumption that is accurately measured by luciferase-coupled chemiluminescence. Greiner 384-well white clear bottom medium binding plates are used for LCCA. Briefly the kinase reaction is initiated by mixing compounds, ATP and kinases in a 20 μL volume. At the end of the kinase reaction, a 20 μL luciferase-luciferin mix is added and the chemiluminescent signal is read on a Wallac Victor^2 reader.
Description for EphA2: as §1, §2
Description for KDR: as §1, §2

Regarding `COc1cc2c(Nc3ccc(Cl)c(Cl)c3)ncnc2cc1OCc1ccc2nc(C(F)(F)F)cc(Cl)c2c1` [Example 236, 7-({[4-chloro-2-(trifluoromethyl)quinolin-6-yl]methyl}oxy)-N-(3,4-dichlorophenyl)-6-(methyloxy)quinazolin-4-amine], the concentration for half-maximal inhibition (IC50) against EphB4, at ErbB2, on EphA2, at EGFR and on KDR was less than 50 nM each time.
Take `COc1cc2c(Nc3ccc(Cl)c(Cl)c3)ncnc2cc1OCCC1CCCN1C` (stereo not drawn) [Example 237, N-(3,4-dichlorophenyl)-6-(methyloxy)-7-{[2-(1-methylpyrrolidin-2-yl)ethyl]oxy}quinazolin-4-amine]: the IC50 against EphB4, at ErbB2, at EphA2, on EGFR and on KDR was less than 50 nM each time.
As to `CCN1CCC(c2nc(COc3cc4ncnc(Nc5ccc(Cl)c(Cl)c5)c4cc3OC)no2)CC1` [Example 238, N-(3,4-dichlorophenyl)-7-({[5-(1-ethylpiperidin-4-yl)-1,2,4-oxadiazol-3-yl]methyl}oxy)-6-(methyloxy)quinazolin-4-amine], the IC50 against EphB4, against ErbB2, at EphA2, on EGFR and at KDR was less than 50 nM each time.
In the case of `COc1cc2c(Nc3ccc(Cl)c(Cl)c3)ncnc2cc1OCc1nc([C@@H]2CCCN2)no1` [Example 243, N-(3,4-dichlorophenyl)-6-(methyloxy)-7-[({3-[(2S)-pyrrolidin-2-yl]-1,2,4-oxadiazol-5-yl}methyl)oxy]quinazolin-4-amine], the IC50 against EphB4, on ErbB2, on EphA2, at EGFR and at KDR was less than 50 nM in each case.
Regarding `COc1cc2c(Nc3ccc(Cl)c(Cl)c3)ncnc2cc1OCc1csc([C@@H]2CCCN2)n1` [Example 244, N-(3,4-dichlorophenyl)-6-(methyloxy)-7-[({2-[(2S)-pyrrolidin-2-yl]-1,3-thiazol-4-yl}methyl)oxy]quinazolin-4-amine], the IC50 at EphB4, against ErbB2, at EphA2, at EGFR and at KDR was less than 50 nM each time.
Take `COc1cc2c(Nc3ccc(Cl)c(Cl)c3)ncnc2cc1OCc1csc(COC(=O)c2ccccc2)n1` [Example 245, [4-({[4-[(3,4-dichlorophenyl)amino]-6-(methyloxy)quinazolin-7-yl]oxy}methyl)-1,3-thiazol-2-yl]methyl benzoate]: the IC50 against EphB4, on ErbB2, on EphA2, on EGFR and on KDR was less than 50 nM in each case.
Consider “N-(3,4-dichlorophenyl)-6-(methyloxy)-7-({[3-(4-methylpiperazin-1-yl)-1,2,4-oxadiazol-5-yl]methyl}oxy)quinazolin-4-amine [Example 33]”, for which the IC50 is less than 50 nM against EphB4; 50 to 1000 nM at ErbB2; 50 to 1000 nM at EphA2; less than 50 nM on EGFR; less than 50 nM at KDR.
Regarding “N-(3,4-dichlorophenyl)-6-(methyloxy)-7-{[(5-methyl-4,5,6,7-tetrahydro[1,3]thiazolo[5,4-c]pyridin-2-yl)methyl]oxy}quinazolin-4-amine hydrochloride [Example 34]”, the IC50 against EphB4 is 50 to 1000 nM; against ErbB2, less than 50 nM; on EphA2, 50 to 1000 nM; on EGFR, less than 50 nM; on KDR it was 50 to 1000 nM.
Turning to “N-(3,4-dichlorophenyl)-7-{[(5-ethyl-4,5,6,7-tetrahydro[1,3]thiazolo[5,4-c]pyridin-2-yl)methyl]oxy}-6-(methyloxy)quinazolin-4-amine hydrochloride [Example 35]”, the half-inhibitory concentration (IC50) against EphB4 was 50 to 1000 nM; against ErbB2 it was 50 to 1000 nM; at EphA2, 50 to 1000 nM; on EGFR it was less than 50 nM; on KDR it was less than 50 nM.
